From ChEMBL document CHEMBL1142808, “O-Methylglucogalloyl esters: synthesis and evaluation of their antimycotic activity” (2005)
≈ marks a conversion by molar mass, not a printed value.

How the values were obtained:
Assay type in all cases: functional
[1] = test system: Nakaseomyces glabratus; assay: Minimum inhibitory concentration in association with methyl gallate (36.8 µg/mL) against Candida glabrata DBVPG 3828
[2] = Minimum inhibitory concentration in association with methyl gallate (36.8 µg/mL) against Issatchenkia orientalis DBVPG 6782; conditions: Pichia kudriavzevii
[3] = test system: Candida albicans; assay: Minimum inhibitory concentration in association with mixture of alpha/beta O-methylgluco-2,3-digalloyl ester (49.8 µg/mL) against Candida albicans DBVPG 6133
[4] = test system: Nakaseomyces glabratus; assay: Minimum inhibitory concentration in association with gallic acid (34.0 µg/mL) against Candida glabrata DBVPG 3828
[5] = test system: Candida albicans; assay: Minimum inhibitory concentration in association with methyl gallate (36.8 µg/mL) against Candida albicans DBVPG 6133
[6] = test system: Nakaseomyces glabratus; assay: Minimum inhibitory concentration in association with mixture of alpha/beta O-methylgluco-2,3-digalloyl ester (49.8 µg/mL) against Candida glabrata DBVPG 3828
[7] = Minimum inhibitory concentration against Issatchenkia orientalis DBVPG 6782; conditions: Pichia kudriavzevii
[8] = Minimum inhibitory concentration in association with mixture of alpha/beta O-methylgluco-2,3-digalloyl ester (49.8 µg/mL) against Issatchenkia orientalis DBVPG 6782; conditions: Pichia kudriavzevii
[9] = test system: Nakaseomyces glabratus; assay: Minimum inhibitory concentration against Candida glabrata DBVPG 3828
[10] = test system: Candida albicans; assay: Minimum inhibitory concentration in association with gallic acid (34.0 µg/mL) against Candida albicans DBVPG 6133
[11] = Minimum inhibitory concentration in association with gallic acid (34.0 µg/mL) against Issatchenkia orientalis DBVPG 6782; conditions: Pichia kudriavzevii
[12] = test system: Candida albicans; assay: Minimum inhibitory concentration against Candida albicans DBVPG 6133
[13] = test system: Candida albicans; assay: Minimum inhibitory concentration (mixture of alpha and beta) against Candida albicans DBVPG 6133
[14] = Minimum inhibitory concentration (mixture of alpha and beta) against Issatchenkia orientalis DBVPG 6782; conditions: Pichia kudriavzevii
[15] = test system: Nakaseomyces glabratus; assay: Minimum inhibitory concentration (mixture of alpha and beta) against Candida glabrata DBVPG 3828

| MIC [13] [µg/mL] | MIC [14] [µg/mL] | MIC [15] [µg/mL] | SMILES | MIC [1] [µg/mL] | MIC [2] [µg/mL] | MIC [3] [µg/mL] | MIC [4] [µg/mL] | MIC [5] [µg/mL] | MIC [6] [µg/mL] | MIC [7] [µg/mL] | MIC [8] [µg/mL] | MIC [9] [µg/mL] | MIC [10] [µg/mL] | MIC [11] [µg/mL] | MIC [12] [µg/mL] |
| --- | --- | --- | --- | --- | --- | --- | --- | --- | --- | --- | --- | --- | --- | --- | --- |
| – | – | – | C[C@@H]1[C@H](O)[C@@H](C)/C=C/C=C/C=C/C=C/C=C/C=C/C=C/[C@H](O[C@@H]2O[C@H](C)[C@@H](O)[C@H](N)[C@@H]2O)C[C@@H]2O[C@](O)(C[C@@H](O)C[C@@H](O)[C@H](O)CC[C@@H](O)C[C@@H](O)CC(=O)O[C@H]1C)C[C@H](O)[C@H]2C(=O)O [AMPHOTERICIN B] | 0.09 (≈ 0.0974 µM) | 45 (≈ 48.7 µM) | 0.05 (≈ 0.0541 µM) | 1 (≈ 1.08 µM) | 0.09 (≈ 0.0974 µM) | 0.05 (≈ 0.0541 µM) | > 100 | 2.05 (≈ 2.22 µM) | 1.06 (≈ 1.15 µM) | 0.09 (≈ 0.0974 µM) | 8 (≈ 8.66 µM) | 1.06 (≈ 1.15 µM) |
| 1940 (≈ 3890 µM) | > 4670 | > 4670 | COC1O[C@H](CO)[C@@H](O)[C@H](OC(=O)c2cc(O)c(O)c(O)c2)[C@H]1OC(=O)c1cc(O)c(O)c(O)c1 (stereo not given in full) | – | – | – | – | – | – | – | – | – | – | – | – |
